The structures appear in SMILES notation.

Consider `CC(C)(CO)NS(=O)(=O)c1ccc(C#Cc2cnn3c(C(F)F)cc(-c4cccc(C(F)(F)F)c4)nc23)s1` [Example 170, 5-[7-Difluoromethyl-5-(3-trifluoromethyl-phenyl)-pyrazolo[1,5-a]pyrimidin-3-ylethynyl]-thiophene-2-sulfonic acid (2-hydroxy-1,1-dimethyl-ethyl)-amide], for which the melting point (in general, the temperature, or range, at which the solid turns liquid) was found to be 168 °C.
To `Cc1cc(-c2ccc(C(F)(F)F)cc2)cn2c(C#Cc3cncc(S(N)(=O)=O)c3)cnc12` [Example 229, 5-[8-Methyl-6-(4-trifluoromethyl-phenyl)-imidazo[1,2-a]pyridin-3-ylethynyl]-pyridine-3-sulfonic acid amide] belongs 294 °C.
As for `CC(C)(CO)NS(=O)(=O)c1cnc(C#Cc2cnn3c(C(F)(F)F)cc(-c4ccc(C(F)(F)F)cc4)nc23)s1` [Example 23, 2-[7-Trifluoromethyl-5-(4-trifluoromethyl-phenyl)-pyrazolo[1,5-a]pyrimidin-3-ylethynyl]-thiazole-5-sulfonic acid (2-hydroxy-1,1-dimethyl-ethyl)-amide], the melting point lay within 252 to 253 °C.
To `Nc1ccc(C#Cc2cnn3c(C4CC4)cc(-c4ccc(Cl)cc4)nc23)cn1` [Example 294, 5-[5-(4-Chloro-phenyl)-7-cyclopropyl-pyrazolo[1,5-a]pyrimidin-3-ylethynyl]-pyridin-2-ylamine] belongs 233 to 235 °C; to `FC(F)(F)c1ccc(-c2cc(C(F)(F)F)n3ncc(C#Cc4cncnc4)c3n2)cc1` [Example 44, 3-Pyrimidin-5-ylethynyl-7-trifluoromethyl-5-(4-trifluoromethyl-phenyl)-pyrazolo[1,5-a]pyrimidine], 175 °C; to `Cc1ncccc1C#Cc1cnn2c(C(F)(F)F)cc(-c3ccc(C(F)(F)F)cc3)nc12` [Example 12, 3-(2-Methyl-pyridin-3-ylethynyl)-7-trifluoromethyl-5-(4-trifluoromethyl-phenyl)-pyrazolo[1,5-a]pyrimidine], 198 °C.
To `NCCNS(=O)(=O)c1ccc(C#Cc2cnn3c(C(F)(F)F)cc(-c4ccc(C(F)(F)F)cc4)nc23)s1` [Example 263, 5-[7-Trifluoromethyl-5-(4-trifluoromethyl-phenyl)-pyrazolo[1,5-a]pyrimidin-3-ylethynyl]-thiophene-2-sulfonic acid (2-amino-ethyl)-amide] belongs 161 °C; to `O=S(=O)(c1ccc(C#Cc2cnn3c(C(F)(F)F)cc(-c4ccc(C(F)(F)F)cc4)nc23)cc1)N1CCOCC1` [Example 122, 3-[4-(Morpholine-4-sulfonyl)-phenylethynyl]-7-trifluoromethyl-5-(4-trifluoromethyl-phenyl)-pyrazolo[1,5-a]pyrimidine], 229 to 231 °C; to `Nc1ncc(C#Cc2cnn3c(C(F)(F)F)cc(-c4ccc(C(F)(F)F)cc4)nc23)cc1C(F)(F)F` [Example 222, 3-Trifluoromethyl-5-[7-trifluoromethyl-5-(4-trifluoromethyl-phenyl)-pyrazolo[1,5-a]pyrimidin-3-ylethynyl]-pyridin-2-ylamine], 230 °C.
Regarding `CC(C)(CO)NS(=O)(=O)c1cnc(C#Cc2cnn3c(C4CC4)cc(-c4ccc(Cl)cc4)nc23)s1` [Example 64, 2-[5-(4-Chloro-phenyl)-7-cyclopropyl-pyrazolo[1,5-a]pyrimidin-3-ylethynyl]-thiazole-5-sulfonic acid (2-hydroxy-1,1-dimethyl-ethyl)-amide], the melting point lay within 204 to 207 °C.
As to `NS(=O)(=O)c1ccc(C#Cc2ncn3c(C(F)F)cc(-c4ccc(C(F)(F)F)cc4)nc23)s1` [Example 275, 5-[4-Difluoromethyl-2-(4-trifluoromethyl-phenyl)-imidazo[1,5-a]pyrimidin-8-ylethynyl]-thiophene-2-sulfonic acid amide], the melting point was 223 °C.
To `FC(F)(F)c1ccc(-c2cc(C(F)(F)F)n3ncc(C#Cc4ccncc4)c3n2)cc1` [Example 7, 3-Pyridin-4-ylethynyl-7-trifluoromethyl-5-(4-trifluoromethyl-phenyl)-pyrazolo[1,5-a]pyrimidine] belongs 252 to 256 °C.
As to `CC(C)(CO)NS(=O)(=O)c1cnc(C#Cc2cnn3c(C(F)(F)F)cc(-c4ccc(Cl)c(Cl)c4)nc23)s1` [Example 90, 2-[5-(3,4-Dichloro-phenyl)-7-trifluoromethyl-pyrazolo[1,5-a]pyrimidin-3-ylethynyl]-thiazole-5-sulfonic acid (2-hydroxy-1,1-dimethyl-ethyl)-amide], the melting point lay within 220 to 223 °C.
To `CCOc1cc(-c2cc(C(F)(F)F)n3ncc(C#Cc4ccc(N)nc4)c3n2)ccc1C(F)(F)F` [Example 189, 5-[5-(3-Ethoxy-4-trifluoromethyl-phenyl)-7-trifluoromethyl-pyrazolo[1,5-a]pyrimidin-3-ylethynyl]-pyridin-2-ylamine] belongs 218 °C; to `N#Cc1cc(-c2ccc(C(F)(F)F)cc2)cn2c(C#Cc3ccc(S(N)(=O)=O)s3)cnc12` [Example 214, 5-[8-Cyano-6-(4-trifluoromethyl-phenyl)-imidazo[1,2-a]pyridin-3-ylethynyl]-thiophene-2-sulfonic acid amide], 267 to 269 °C; to `Nc1ccc(C#Cc2cnn3c(CO)cc(-c4ccc(Cl)cc4)nc23)cn1` [Example 298, [3-(6-Amino-pyridin-3-ylethynyl)-5-(4-chloro-phenyl)-pyrazolo[1,5-a]pyrimidin-7-yl]-methanol], 215 to 217 °C.
To `O=S(=O)(NCCc1ccncc1)c1ccc(C#Cc2cnn3c(C4CC4)cc(-c4ccc(Cl)cc4)nc23)s1` [Example 318, 5-[5-(4-Chloro-phenyl)-7-cyclopropyl-pyrazolo[1,5-a]pyrimidin-3-ylethynyl]-thiophene-2-sulfonic acid (2-pyridin-4-yl-ethyl)-amide] belongs 172 to 174 °C; to `Cc1cc(-c2cc(C(F)(F)F)n3ncc(C#Cc4cccnc4)c3n2)ccc1Cl` [Example 101, 5-(4-Chloro-3-methyl-phenyl)-3-pyridin-3-ylethynyl-7-trifluoromethyl-pyrazolo[1,5-a]pyrimidine], 196 °C.
To `Cc1ccc(C#Cc2cnn3c(C(F)(F)F)cc(-c4ccc(C(F)(F)F)cc4)nc23)cc1S(N)(=O)=O` [Example 35, 2-Methyl-5-[7-trifluoromethyl-5-(4-trifluoromethyl-phenyl)-pyrazolo[1,5-a]pyrimidin-3-ylethynyl]-benzenesulfonamide] belongs 255 to 267 °C; to `Cc1ccc(C#Cc2cnn3c(C(F)(F)F)cc(-c4ccc(C(F)(F)F)cc4)nc23)cn1` [Example 9, 3-(6-Methyl-pyridin-3-ylethynyl)-7-trifluoromethyl-5-(4-trifluoromethyl-phenyl)-pyrazolo[1,5-a]pyrimidine], 195 °C.
On to `Cc1nc(C#Cc2cnn3c(C(F)(F)F)cc(-c4ccc(C(F)(F)F)cc4)nc23)sc1S(=O)(=O)NC(C)(C)CO` [Example 53, 4-Methyl-2-[7-trifluoromethyl-5-(4-trifluoromethyl-phenyl)-pyrazolo[1,5-a]pyrimidin-3-ylethynyl]-thiazole-5-sulfonic acid (2-hydroxy-1,1-dimethyl-ethyl)-amide], for which the melting point fell in the range of 216 to 218 °C.
`NS(=O)(=O)c1cc(C#Cc2cnn3c(C4CC4)cc(-c4ccc(Cl)c(Cl)c4)nc23)c(F)cc1F` [Example 85, 5-[7-Cyclopropyl-5-(3,4-dichloro-phenyl)-pyrazolo[1,5-a]pyrimidin-3-ylethynyl]-2,4-difluoro-benzenesulfonamide] displayed a melting point of 280 to 281 °C.
Turning to `CC(C)(CO)NS(=O)(=O)c1ccc(C#Cc2cnn3c(C(F)F)cc(-c4ccc(C(F)(F)F)cc4)nc23)s1` [Example 169, 5-[7-Difluoromethyl-5-(4-trifluoromethyl-phenyl)-pyrazolo[1,5-a]pyrimidin-3-ylethynyl]-thiophene-2-sulfonic acid (2-hydroxy-1,1-dimethyl-ethyl)-amide], the melting point came out at 157 °C.
To `COc1cncc(C#Cc2cnn3c(C(F)(F)F)cc(-c4ccc(C(F)(F)F)cc4)nc23)c1` [Example 57, 3-(5-Methoxy-pyridin-3-ylethynyl)-7-trifluoromethyl-5-(4-trifluoromethyl-phenyl)-pyrazolo[1,5-a]pyrimidine] belongs 232 to 234 °C.
Take `COc1ccc(C#Cc2cnn3c(C(F)F)cc(-c4ccc(C(F)(F)F)cc4)nc23)cc1S(=O)(=O)NC(C)(C)CO` [Example 43, 5-[7-Difluoromethyl-5-(4-trifluoromethyl-phenyl)-pyrazolo[1,5-a]pyrimidin-3-ylethynyl]-N-(2-hydroxy-1,1-dimethyl-ethyl)-2-methoxy-benzenesulfonamide]: the melting point lay in the range of 178 to 180 °C.
The same measure for `Cc1cc(C#Cc2cnn3c(C(F)(F)F)cc(-c4ccc(C(F)(F)F)cc4)nc23)cnc1N` [Example 127, 3-Methyl-5-[7-trifluoromethyl-5-(4-trifluoromethyl-phenyl)-pyrazolo[1,5-a]pyrimidin-3-ylethynyl]-pyridin-2-ylamine]: 233 to 234 °C.
To `Nc1ccc(C#Cc2cnc3c(F)cc(-c4ccc(C(F)(F)F)cc4)cn23)cn1` [Example 239, 5-[8-Fluoro-6-(4-trifluoromethyl-phenyl)-imidazo[1,2-a]pyridin-3-ylethynyl]-pyridin-2-ylamine] belongs 281 to 282 °C; to `Cc1cc(-c2cc(C(F)(F)F)n3ncc(C#Cc4cc(S(N)(=O)=O)c(F)cc4F)c3n2)ccc1Cl` [Example 111, 5-[5-(4-Chloro-3-methyl-phenyl)-7-trifluoromethyl-pyrazolo[1,5-a]pyrimidin-3-ylethynyl]-2,4-difluoro-benzenesulfonamide], 294 °C.
To `CNC(=O)c1ccc(C#Cc2cnn3c(C4CC4)cc(-c4ccc(Cl)cc4)nc23)cc1` [Example 306, 4-[5-(4-Chloro-phenyl)-7-cyclopropyl-pyrazolo[1,5-a]pyrimidin-3-ylethynyl]-N-methyl-benzamide] belongs 214 to 216 °C; to `O=S(=O)(NCCO)c1cccc(C#Cc2cnn3c(C(F)(F)F)cc(-c4ccc(C(F)(F)F)cc4)nc23)c1` [Example 132, N-(2-Hydroxy-ethyl)-3-[7-trifluoromethyl-5-(4-trifluoromethyl-phenyl)-pyrazolo[1,5-a]pyrimidin-3-ylethynyl]-benzenesulfonamide], 213 °C.

Source of the values: US8063048B2, “Acetylenyl-pyrazolo-pyrimidine derivatives” (Hoffmann-La Roche Inc., priority 2005, dated 2011).
